Source: patent US12606533B2, “3-phenylpropylamine derivative” (DAIICHI SANKYO COMPANY, LIMITED, priority 2023, dated 2026)

What was measured:
SF-1 = molecular target: T1, SF-1 (Homo sapiens, UniProt Q13285); experiment: SF1 degradation induction in NCI-H295R SF-1-HiBiT cells (HiBiT DC50); assay type: cell-based; details: 24 hr, concentration that induces 50% degradation of SF-1
T1 construct: NCI-H295R SF-1-HiBiT cells with HiBiT tag knocked in at the endogenous SF1 locus; host or cells: NCI-H295R SF-1-HiBiT (knock-in at endogenous locus)
Experimental: NCI-H295R SF-1-HiBiT cells were seeded in a 384-well plate (Thermo Fisher Scientific Inc.) at 1×10^4 cells/50 μL/well and cultured at 37° C. in a 5% CO2 incubator for 24 hr. DMSO solutions of each compound were serially diluted with DMSO using a D300e Digital Dispenser (TECAN), added to a 384-well plate, and cultured in a 5% CO2 incubator at 37° C. for 24 hr. […] After completion of culture, the medium was discarded, and Nano-Glo (registered trade mark) HiBiT Lytic Detection System (Promega, Cat. No. N3040) was added at 20 μL/well and stirred with a plate mixer. Luminescence signals were then detected using a multimode plate reader (EnVision Xcite, PerkinElmer). The SF-1 protein degradation rate was calculated from the amount of luminescence (C) in the compound-free group and the amount of luminescence (T) in the compound-added group, based on the following formula.
The obtained data was analyzed using GraphPad Prism9 (GraphPad Software Inc.) or Genedata Screener (Genedata AG) to calculate the concentration that induces 50% degradation of SF-1 (DC50 value).

NCI-H295R cells = experiment: Proliferation inhibitory action on NCI-H295R (CellTiter-Glo, 7 days); assay type: cell-based, human; details: Homo sapiens, NCI-H295R, 168 h
Experimental: DMSO solutions of each compound were serially diluted with DMSO using a D300e Digital Dispenser (TECAN), and added to a 384-well plate (Thermo Fisher Scientific Inc.). NCI-H295R cells were seeded in a 384-well plate at 2×10^3 cells/40 μL/well and cultured for 7 days in a 37° C., 5% CO2 incubator. […] On the first day of culture (day 0) and the seventh day of culture (day 7), 10 μL/well of CellTiter-Glo (registered trademark) 2.0 Assay (Promega) was added, and the luminescence signal was detected using a multimode plate reader (EnVision, PerkinElmer). The cell proliferation rate was calculated from the luminescence amount on the day of compound addition (CO), the luminescence amount of the compound-free group after 7 days of culture (C7), and the luminescence amount of the compound-added group (T7), based on the following formula.

Row | Compound | DC50 (SF-1) | GI50 (NCI-H295R cells)
1 | COc1ccc([C@]2(CCN(CC3CC=C(c4ccc(NC(=O)C5CC(Nc6ccc7c(c6)n(C)c(=O)n7C6CCC(=O)NC6=O)C5)c(F)c4)CC3)CC(C)(C)C(F)(F)F)CCOC(C)(C)C2)cc1 (stereo partly drawn) [BE5, 3-{[1-(2,6-Dioxopiperidin-3-yl)-3-methyl-2-oxo-2,3-dihydro-1H-benzimidazol-5-yl]amino}-N-(3-fluoro-4′-{[{2-[(4R)-4-(4-methoxyphenyl)-2,2-dimethyltetrahydro-2H-pyran-4-yl]ethyl}(3,3,3-trifluoro-2,2-dimethylpropyl)amino]methyl}-2′,3′,4′,5′-tetrahydro[biphenyl]-4-yl)cyclobutanecarboxamide] | 2.6 nM | 124 nM
2 | COc1ccc([C@]2(CCN(Cc3ccc(C4=CC[C@H](CN5CCN(C(=O)c6ccc7c8c6NCCn8c(=O)n7[C@H]6CCC(=O)NC6=O)CC5)CC4)cc3)CC(C)(C)C(F)(F)F)CCOC(C)(C)C2)cc1 [CE1, (3S)-3-{7-[(4-{[(4R)-4′-{[{2-[(4R)-4-(4-Methoxyphenyl)-2,2-dimethyltetrahydro-2H-pyran-4-yl]ethyl)(3,3,3-trifluoro-2,2-dimethylpropyl)amino]methyl}-2,3,4,5-tetrahydro[biphenyl]-4-yl]methyl}piperazin-1-yl)carbonyl]-2-oxo-5,6-dihydro-4H-imidazo[1,5,4-de]quinoxalin-1(2H)-yl}piperidine-2,6-dione] | 4.3 nM | 70 nM
3 | COc1ccc([C@]2(CCN(Cc3ccc(OC4CC5(CCN(CC(=O)Nc6ccc7c(c6)CN(C6CCC(=O)NC6=O)C7=O)CC5)C4)cc3)CC(C)(C)C(F)(F)F)CCOC(C)(C)C2)cc1 (stereo partly drawn) [Example AF1, N-[2-(2,6-Dioxopiperidin-3-yl)-1-oxo-2,3-dihydro-1H-isoindol-5-yl]-2-[2-(4-{[{2-[(4R)-4-(4-methoxyphenyl)-2,2-dimethyltetrahydro-2H-pyran-4-yl]ethyl}(3,3,3-trifluoro-2,2-dimethylpropyl)amino]methyl}phenoxy)-7-azaspiro[3.5]nonan-7-yl]acetamide] | 6.9 nM | 121 nM
4 | COc1ccc([C@]2(CCN(Cc3cc(F)c(C4=CCC(C(=O)N5CCN(Cc6ccc7c(c6)n(C)c(=O)n7C6CCC(=O)NC6=O)CC5)CC4)c(F)c3)CC(C)(C)C(F)(F)F)CCOC(C)(C)C2)cc1 (stereo partly drawn) [AU4, 3-[5-({4-[(2′,6′-Difluoro-4′-{[{2-[(4R)-4-(4-methoxyphenyl)-2,2-dimethyltetrahydro-2H-pyran-4-yl]ethyl)(3,3,3-trifluoro-2,2-dimethylpropyl)amino]methyl}-2,3,4,5-tetrahydro[biphenyl]-4-yl)carbonyl]piperazin-1-yl}methyl)-3-methyl-2-oxo-2,3-dihydro-1H-benzimidazol-1-yl]piperidine-2,6-dione] | 9.3 nM | 60 nM
5 | COc1ccc([C@]2(CCN(Cc3ccc(C4=CC[C@H](CN5CCN(C(=O)c6ccc7c(c6)n(C)c(=O)n7C6CCC(=O)NC6=O)CC5)CC4)cc3)CC(C)(C)C(F)(F)F)CCOC(C)(C)C2)cc1 (stereo partly drawn) [BI2, 3-{5-[(4-{[(4R)-4′-{[{2-[(4R)-4-(4-Methoxyphenyl)-2,2-dimethyltetrahydro-2H-pyran-4-yl]ethyl)(3,3,3-trifluoro-2,2-dimethylpropyl)amino]methyl}-2,3,4,5-tetrahydro[biphenyl]-4-yl]methyl}piperazin-1-yl)carbonyl]-3-methyl-2-oxo-2,3-dihydro-1H-benzimidazol-1-yl}piperidine-2,6-dione] | 11 nM | 79 nM
6 | COc1ccc([C@]2(CCN(Cc3ccc(C4=C(F)CC(C(=O)N5CCN(Cc6ccc7c8c6CCCn8c(=O)n7C6CCC(=O)NC6=O)CC5)CC4)cc3)CC(C)(C)C(F)(F)F)CCOC(C)(C)C2)cc1 (stereo partly drawn) [BB7, 3-[7-({4-[(6-Fluoro-4′-{[{2-[(4R)-4-(4-methoxyphenyl)-2,2-dimethyltetrahydro-2H-pyran-4-yl]ethyl)(3,3,3-trifluoro-2,2-dimethylpropyl)amino]methyl}-2,3,4,5-tetrahydro[biphenyl]-4-yl)carbonyl]piperazin-1-yl}methyl)-2-oxo-5,6-dihydro-4H-imidazo[4,5,1-ij]quinolin-1(2H)-yl]piperidine-2,6-dione] | 9 nM | 62 nM
